Assay: Metabolism of compound [125I](1)
Type: in vivo, mice
Method: 24 primary melanoma bearing mice were intravenously injected with 2.2 MBq of [^1251](1) and sacrificed 1 h, 3 h, 6 h, 24 h, 72 h and 10 days after tracer injection. To determine the metabolic stability of [^1251](1), blood, tumour, eyes, liver, kidney and urine samples were collected at each time point […]. Faeces were collected between 0-24 h and 24-48 h. Blood was immediately diluted in 5 mL of methanol/NH4OH 99.8:0.2 and centrifuged for 5 min at 3,000 rpm. Tumour, eyes, liver, kidneys and faeces were suspended in 5 mL of methanol/NH4OH 99.8:0.2, homogenized using GentleMACS™ dissociator (Miltenyi Biotec, Bergisch Gladbach, Germany) and centrifuged for 5 min at 3,000 rpm (repeated 2 times). Urines were analysed without any treatment. The extraction efficiency was determined by measuring the radioactivity of supernatants and precipitates. Supernatants were passed through a 0.22 μm Millipore filter and then concentrated to a volume between 200 and 500 μL before injection (duplicate) onto the analytical HPLC(C18 column; solvent A: H2O (0.2% NH4OH); solvent B: MeOH (0.2% NH4OH); Gradient elution: 0-5 min: 90 to 70% of A (Q=0.5 mL·min^−1); 5-30 min: 70 to 20% of A (Q=0.9 mL·min^−1); 30-32 min: 10% of A (Q=0.9 mL·min^−1)).

[1] = Blood, 1 h after [125I](1) injection
[2] = Blood, 3 h after [125I](1) injection
[3] = Blood, 6 h after [125I](1) injection
[4] = Feces, (grid: 3 h; faeces collected 24-48 h)
[5] = Feces, first value column (grid: 1 h; faeces collected 0-24 h)
[6] = Kidney, 1 h after [125I](1) injection
[7] = Kidney, 3 h after [125I](1) injection
[8] = Kidney, 6 h after [125I](1) injection
[9] = Urine, 1 h after [125I](1) injection
[10] = Urine, 3 h after [125I](1) injection
[11] = Urine, 6 h after [125I](1) injection
[12] = Urine, 24 h after [125I](1) injection
[13] = Urine, 72 h after [125I](1) injection
[14] = Liver, 1 h after [125I](1) injection
[15] = Liver, 3 h after [125I](1) injection
[16] = Liver, 6 h after [125I](1) injection
[17] = Liver, 24 h after [125I](1) injection

Structure (SMILES) | % of radioactivity [1] | % of radioactivity [2] | % of radioactivity [3] | % of radioactivity [4] | % of radioactivity [5] | % of radioactivity [6] | % of radioactivity [7] | % of radioactivity [8] | % of radioactivity [9] | % of radioactivity [10] | % of radioactivity [11] | % of radioactivity [12] | % of radioactivity [13] | % of radioactivity [14] | % of radioactivity [15] | % of radioactivity [16] | % of radioactivity [17] | further results
O=C(O)c1cnc2cc([125I])ccc2n1 [Acid [^125I]I] | 21.5 ± 2.1% | 11.5 ± 0.7% | 11.0 ± 0.0% | 8.0 ± 1.4% | 7.5 ± 0.7% | 29.0 ± 1.4% | 34.2 ± 0.7% | 43.0 ± 1.4% | 17.2 ± 3.1% | 20.0 ± 1.4% | 16.0 ± 1.4% | 3.5 ± 0.7% | 0.0 ± 0.0% |  |  |  |  | 
[125IH] [[^125I]I^−] | 76.5 ± 0.7% | 88.5 ± 0.7% | 85.5 ± 4.9% | 27.0 ± 1.4% | 8.0 ± 0.0% | 20.5 ± 0.7% | 37.2 ± 2.2% | 57.0 ± 1.4% | 25.7 ± 3.2% | 30.5 ± 0.7% | 51.0 ± 4.2% | 85.0 ± 1.4% | 99.0 ± 0.0% | 20.0 ± 1.4% | 21.5 ± 4.9% | 29.5 ± 0.7% | 29.5 ± 0.7% | % of radioactivity (Eyes, 1 h after [125I](1) injection): 9.5 ± 0.7%; % of radioactivity (Eyes, 3 h after [125I](1) injection): 5.5 ± 2.1%; % of radioactivity (Eyes, 6 h after [125I](1) injection): 4.0 ± 5.7%; % of radioactivity (Eyes, 24 h after [125I](1) injection): 0.0 ± 0.0%; % of radioactivity (Eyes, 72 h after [125I](1) injection): 0.0 ± 0.0%; % of radioactivity (Eyes, 10 d after [125I](1) injection): 0.0 ± 0.0%; % of radioactivity (Tumour, 1 h after [125I](1) injection): 13.0 ± 1.4%; % of radioactivity (Tumour, 3 h after [125I](1) injection): 6.5 ± 0.7%; % of radioactivity (Tumour, 6 h after [125I](1) injection): 9.0 ± 0.0%; % of radioactivity (Tumour, 24 h after [125I](1) injection): 0.0 ± 0.0%; % of radioactivity (Tumour, 72 h after [125I](1) injection): 0.0 ± 0.0%; % of radioactivity (Tumour, 10 d after [125I](1) injection): 0.0 ± 0.0%
NCCNC(=O)c1cnc2cc([125I])ccc2n1 [Amine [^125I]I] |  |  |  | 14.0 ± 0.0% | 16.0 ± 0.0% | 18.5 ± 0.7% | 11.7 ± 0.7% | 0.0 ± 0.0% | 6.6 ± 0.6% | 13.0 ± 1.4% | 3.5 ± 4.9% | 0.0 ± 0.0% | 0.0 ± 0.0% | 26.0 ± 0.0% | 45.5 ± 2.1% | 55.0 ± 2.8% | 70.5 ± 0.7% | 
O=C(O)CNC(=O)c1cnc2cc([125I])ccc2n1 [Acid [^125I]II] |  |  |  | 3.5 ± 0.7% | 3.0 ± 0.0% |  |  |  | 30.3 ± 2.4% | 24.0 ± 0.0% | 21.0 ± 0.0% | 6.5 ± 0.7% | 0.0 ± 0.0% |  |  |  |  | 
CCNCCNC(=O)c1cnc2cc([125I])ccc2n1 [Amine [^125I]II] |  |  |  | 2.5 ± 0.7% | 6.5 ± 0.7% |  |  |  |  |  |  |  |  |  |  |  |  | 

Source: patent publication US20150079000A1, “Labelled Quinoxaline Derivatives as Multimodal Radiopharmaceuticals and Their Precursors” (INSTITUT NATIONAL DE LA SANTET DE LA RECHERCHE MEDICALE, priority 2012, published 2015)
